The test system of experiment [1] is Sprague Dawley rats. Put plainly: Lower lip retraction (LLR) in rats. Type of experiment: in vivo, rat. The following applies: for induction of LLR (in words): given alone: 8-OH-DPAT 1 mg/kg, Zn 2 and 5 mg/kg, WAY-100635 0.1 mg/kg. The method, then:
The experiments were performed on male Albino Swiss mice (23-25 g) and Sprague Dawley rats (200-250 g) from Charles River, Germany as well as […]-flx-YFP mice from Jackson Labs, Bangor ME and the Hen lab, respectively. The animals were kept under standard laboratory conditions with respect to lighting (light phase 7:00-19:00) and temperature (19-21 °C). Food and water were freely available. Each experimental group consisted of eight to ten animals. All of the animals were experimentally naive and were used only once in each test. The experiments were performed during the light period (9:00-14:00 h). All of the procedures were conducted according to the guidelines of the National Institutes of Health Animal Care and Use Committee and were approved by the Ethics Committees of the Institute of Pharmacology, Polish Academy of Sciences in Krakow and the Animal Care Committee, University of Ottawa. […] Controls were treated with the appropriate diluent, which was indicated as VEH on the graphs and in the tables. LLR was assessed according to the method described by Berendsen et al., [20]. The rats were individually placed in cages (30×25×25 cm) and were scored three times, 15, 30 and 45 min after the administration of Zn as follows: 0=lower incisors not visible, 0.5=partly visible and 1=completely visible. Zn was administered at doses of 2 and 5 mg Zn/kg (given as Zn hydroaspartate, Farmapol, Poland). The maximum total score was 3/rat. In addition, the effects of Zn and WAY-100635 (0.1 mg/kg; […] Sigma) were tested.

Experiment [2] concerns Sprague Dawley rats. Briefly: 5-HT behavioural syndrome (flat body posture, forepaw treading) in rats. Format: in vivo, rat. To be noted: VEH + 8-OH-DPAT 5 mg/kg. On the procedure:
(§1) The experiments were performed on male Albino Swiss mice (23–25 g) and Sprague Dawley rats (200–250 g) from Charles River, Germany as well as TPH2-Cre-ER^T2 x flx-5-HT1A-flx-YFP mice from Jackson Labs, Bangor ME and the Hen lab, respectively. The animals were kept under standard laboratory conditions with respect to lighting (light phase 7:00–19:00) and temperature (19–21 °C). Food and water were freely available. Each experimental group consisted of eight to ten animals. All of the animals were experimentally naive and were used only once in each test. The experiments were performed during the light period (9:00–14:00 h). All of the procedures were conducted according to the guidelines of the National Institutes of Health Animal Care and Use Committee and were approved by the Ethics Committees of the Institute of Pharmacology, Polish Academy of Sciences in Krakow and the Animal Care Committee, University of Ottawa.
Zn (all doses refer to mg Zn/kg) was given as either Zn hydroaspartate (Farmapol, Poland) or Zn chloride (Sigma-Aldrich) and was dissolved in 0.9 % NaCl and administered intraperitoneally (i.p.). 8-OH-DPAT and WAY-100635 were dissolved in aqua pro-injection and were administered subcutaneously (s.c.). Controls were treated with the appropriate diluent, which was indicated as VEH on the graphs and in the tables.
The experiments were conducted according to previously published procedure, with a modification to the ranked intensity scale. Briefly, the rats were individually placed in cages (30×25×25 cm) 5 min before tested compounds were injected. Forepaw treading (FT) and flat body posture (FBP) were scored using a ranked intensity scale, where 0=absent, 1=equivocal and 2=present. The Zn (2, 5, 7.5 and 11.5 mg Zn/kg, given as a Zn hydroaspartate)-induced behavioural syndrome was scored for each animal 3, 6, 9, 12 and 15 min after the Zn treatment. Each observation session lasted for 45 s. The maximum score, which was summed over 5 observation periods, was 10 for each symptom/rat. The effect of Zn on the behavioural syndrome induced by 8-OH-DPAT (5 mg/kg) was scored using the same scale. Zn was administered 60 min before 8-OH-DPAT, and the animals were scored 3, 6, 9, 12 and 15 min after the 8-OH-DPAT treatment.

The next experiment is described as follows: Body temperature in rats. Format: in vivo, rat. The following applies: 8-OH-DPAT 5 mg/kg, vs saline group. The method, then: as §1, with “Ottawa. […]” for “Ottawa.”
The effects of Zn (2, 5, 7.5 and 11.5 mg Zn/kg for rats and 2 and 5 mg/kg for mice, given as a Zn hydroaspartate), 8-OH-DPAT (5 mg/kg) and WAY-100635 (0.1mg/kg) on rectal body temperature were recorded 30 and 60 min after their acute administration. The results were expressed as a change in body temperature with respect to the basal body temperature, which was measured at the beginning of the experiments.

Another experiment can be described thus: Body temperature in mice. Format: in vivo, mouse. The method, then:
The experiments were performed on male Albino Swiss mice (23-25 g) and Sprague Dawley rats (200-250 g) from Charles River, Germany as well as […]-flx-YFP mice from Jackson Labs, Bangor ME and the Hen lab, respectively. The animals were kept under standard laboratory conditions with respect to lighting (light phase 7:00-19:00) and temperature (19-21 °C). Food and water were freely available. Each experimental group consisted of eight to ten animals. All of the animals were experimentally naive and were used only once in each test. The experiments were performed during the light period (9:00-14:00 h). All of the procedures were conducted according to the guidelines of the National Institutes of Health Animal Care and Use Committee and were approved by the Ethics Committees of the Institute of Pharmacology, Polish Academy of Sciences in Krakow and the Animal Care Committee, University of Ottawa. […] Controls were treated with the appropriate diluent, which was indicated as VEH on the graphs and in the tables. […] The results were expressed as a change in body temperature with respect to the basal body temperature, which was measured at the beginning of the experiments.

In experiment [3] the test system is Sprague Dawley rats. Put plainly: Forced swim test (FST) in rats. Type of experiment: in vivo, rat.
Method: The test was carried out according to the method described previously [10]. On day one of the experiment, the animals were individually placed in plexiglass cylinders (40 cm in height, 18 cm in diameter), containing 25 cm of water maintained at 24–25 °C for a 15-min habituation period. After the rats were removed from the water, they were again placed in their home cages. On the second day, the rats were again placed in the cylinders, and the total duration of immobility was measured for a 5-min test period. Zn (1 or 2 mg Zn/ kg, given as Zn hydroaspartate) and 8-OH-DPAT (0.1 or 0.3 mg/kg) were administered alone or jointly 30 min before the test. WAY-100635 (0.1 mg/kg) was administered 15 min before the Zn treatment.
Experiment [4] deals with T1, human 5-HT1AR stably expressed in HEK293 cells (Homo sapiens, UniProt P08908).
T1 construct: The full-length human 5HTR1A complementary DNA (cDNA); membranes prepared from the cells
T1 sequence (P08908 1-422): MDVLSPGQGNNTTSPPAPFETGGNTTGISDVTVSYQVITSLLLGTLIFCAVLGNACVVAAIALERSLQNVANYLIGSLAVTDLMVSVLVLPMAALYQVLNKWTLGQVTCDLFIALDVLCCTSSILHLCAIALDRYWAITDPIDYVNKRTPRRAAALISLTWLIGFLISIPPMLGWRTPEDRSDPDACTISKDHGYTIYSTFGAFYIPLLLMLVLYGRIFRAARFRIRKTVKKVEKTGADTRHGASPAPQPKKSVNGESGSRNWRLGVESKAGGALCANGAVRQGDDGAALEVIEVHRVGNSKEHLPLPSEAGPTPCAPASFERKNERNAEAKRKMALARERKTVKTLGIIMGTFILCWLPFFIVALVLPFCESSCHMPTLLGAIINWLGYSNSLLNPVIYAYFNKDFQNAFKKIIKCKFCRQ
Briefly: Saturation binding of [3H]-8-OH-DPAT in the absence and presence of Zn. The following applies: saturation binding. The method, then:
The full-length human 5HTR1A complementary DNA (cDNA), which was cloned into the mammalian expression vector pcDNA3.1(+), was obtained from the Missouri S&T cDNA Resource Center (www.cdna.org). The receptor cDNA was stably transfected into human embryonic kidney cells (HEK293, ATCC) with the use of Lipofectamine 2000 (Invitrogen).
Cell pellets were thawed and homogenized in 20 volumes of 50 mM Tris–HCl buffer (pH 7.7) containing 0.1 mM EDTA and 10 mM MgCl2, using an Ultra Turrax tissue homogenizer. The pellets were then centrifuged twice at 35,000g for 20 min at 4 °C, with incubation for 15 min at 37 °C in between centrifugations. Membranes were aliquoted in tubes. Membrane protein concentrations were determined using the Pierce™ Coomassie (Bradford) Protein Assay Kit, with bovine serum albumin (BSA) as a standard.
The incubation buffer consisted of 50 mM Tris–HCl (pH 7.7), 10 mM MgCl2, 10 mM pargyline and 0.1 % ascorbic acid. Radioligand binding assays were performed by incubating 30 μg of protein of the membrane suspension in 96-well microtitre plates for 60 min at room temperature with shaking, in a total volume of 200 μl. The binding reactions were stopped by filtration through GF/C Unifilter plates using a harvester (PerkinElmer). The plate filters were dried, and 20 μl of Ultima Gold MV (PerkinElmer) was added. Radioactivity was measured using a MicroBeta TriLux counter (PerkinElmer).
All experiments were performed in triplicate, and the results were obtained from at least three independent experiments. The data are expressed as the mean±S.D. (standard deviation). The experimental data were analysed using GraphPad Prism 5.1 for Windows (GraphPad Software, San Diego California USA, www.graphpad.com).

`CCCN(CCC)C1CCc2cccc(O)c2C1` (stereo not drawn) [8-OH-DPAT, 8-Hydroxy-2-(di-n-propylamino)tetralin, reference compound]: in the experiment with Sprague Dawley rats [1] (VEH pretreatment + 8-OH-DPAT 1 mg/kg), the “Mean LLR score (B) 8-OH-DPAT 1 mg/kg” value was determined as 2.25±0.46. Besides, the “induction of LLR (in words)” value in the experiment with Sprague Dawley rats [1] is on record as “induced LLR”. The “behavioural score FBP (B) 8-OH-DPAT” value in the experiment with Sprague Dawley rats [2] is listed as 7.83±0.7. The “behavioural score FT (B) 8-OH-DPAT” value in the experiment on Sprague Dawley rats [2] was found to be 7.5±0.6. Also, the “change in body temperature” value in “Body temperature in rats” is given as “significant decrease in body temperature”; in “Body temperature in mice” (8-OH-DPAT 5 mg/kg, vs saline group) it was “significant decrease in body temperature”. Besides, the “immobility time in the FST” value in the experiment with Sprague Dawley rats [3] (8-OH-DPAT 0.1 mg/kg) is reported as “not 0.1 mg/kg (p>0.05) decreased the immobility time”; in the experiment with Sprague Dawley rats [3] (8-OH-DPAT 0.3 mg/kg), “decreased the immobility time”.
For `CCCN(CCC)C1CCc2cccc(O)c2C1` (stereo not drawn) [[^3H]-8-OH-DPAT], the “Bmax of [3H]8-OH-DPAT” value in experiment [4] (Zn2+ 0 μM) worked out at 4.5±0.3 pM/mg prot; in experiment [4] (Zn2+ 10 μM), 5.8±0.7 pM/mg prot; in experiment [4] (Zn2+ 10 μM, listed as [^3H]8-OH-DPAT), 5.8±0.7 pM/mg prot; in experiment [4] (Zn2+ 100 μM), 6.2±2.0 pM/mg prot; in experiment [4] (Zn2+ 500 μM), 4.7±0.7 pM/mg prot; in experiment [4] (Zn2+ 1000 μM), 4.0±0.6 pM/mg prot.
In the case of `COc1ccccc1N1CCN(CCN(C(=O)C2CCCCC2)c2ccccn2)CC1` [WAY-100635, N-[2[4-(2-methoxyphenyl)-1-piperazinyl]ethyl]-N-(2-pyridyl)cyclohexanecarboxamide, reference compound], in the experiment on Sprague Dawley rats [1] (WAY 100635 0.1 mg/kg 45 min before 8-OH-DPAT 1 mg/kg), the “Mean LLR score (B) 8-OH-DPAT 1 mg/kg” value is listed as 0.67±0.76. Moreover, in the experiment on Sprague Dawley rats [1] (WAY 100635 0.1 mg/kg s.c. alone, max score 3/rat), the “Mean LLR score (A) VEH” value was found to be 0.0±0.0. In the experiment on Sprague Dawley rats [1] (Zn 2 and 5 mg/kg or WAY-100635 0.1 mg/kg before 8-OH-DPAT 1 mg/kg), the “effect on LLR induced by 8-OH-DPAT (in words)” value was “blocked the LLR induced by 8-OH-DPAT”. Further, the “induction of LLR (in words)” value in the experiment with Sprague Dawley rats [1] is listed as “did not evoke LLR”. Further, the “effect of pretreatment on Zn-induced decrease in body temperature” value in the experiment “Body temperature in mice” (WAY-100635 0.1 mg/kg s.c. 15 min before Zn) is “abolished the effect induced by Zn”. Besides, the “effect on Zn-induced decrease in immobility time” value in the experiment with Sprague Dawley rats [3] (WAY-100635 0.1 mg/kg 15 min before Zn) is “antagonized the Zn-induced decrease in the immobility time”. Further, in the experiment with Sprague Dawley rats [3] (WAY-100635 0.1 mg/kg given alone), the “behaviour in the FST” value is “did not change the behaviour of the animals”.

(Values after PMC5104769, “Concentration-Dependent Dual Mode of Zn Action at Serotonin 5-HT1A Receptors: In Vitro and In Vivo Studies” (Molecular neurobiology, 2015).)
